Article PMC6768063 (Journal of computer-aided molecular design, 2019)

Columns and labels:
[1] = molecular target: T1, D2 receptor (Homo sapiens, UniProt P14416); conditions: cited from earlier work
[2] = molecular target: T2, D1 receptor (Homo sapiens, UniProt P21728); test: cAMP assay; type: cell-based; conditions: for EC50: read-out: EC50, agonist effect (cAMP production), CHO-K1/D1 cells, agonist mode
[3] = molecular target: T1, D2 receptor; test: calcium flux assay; type: cell-based; conditions: for EC50: read-out: EC50, agonist effect (calcium flux), D2/CHO-K1 cells, agonist mode
[4] = molecular target: T2, D1 receptor; conditions: cited from earlier work
[5] = molecular target: T1, D2 receptor; conditions: cited from earlier work; remark: listed apart in the source
[6] = tested on: D3 receptor; conditions: cited from earlier work
[7] = tested on: 5-HT1A receptor; conditions: cited from earlier work

T2 sequence (P21728 whole entry): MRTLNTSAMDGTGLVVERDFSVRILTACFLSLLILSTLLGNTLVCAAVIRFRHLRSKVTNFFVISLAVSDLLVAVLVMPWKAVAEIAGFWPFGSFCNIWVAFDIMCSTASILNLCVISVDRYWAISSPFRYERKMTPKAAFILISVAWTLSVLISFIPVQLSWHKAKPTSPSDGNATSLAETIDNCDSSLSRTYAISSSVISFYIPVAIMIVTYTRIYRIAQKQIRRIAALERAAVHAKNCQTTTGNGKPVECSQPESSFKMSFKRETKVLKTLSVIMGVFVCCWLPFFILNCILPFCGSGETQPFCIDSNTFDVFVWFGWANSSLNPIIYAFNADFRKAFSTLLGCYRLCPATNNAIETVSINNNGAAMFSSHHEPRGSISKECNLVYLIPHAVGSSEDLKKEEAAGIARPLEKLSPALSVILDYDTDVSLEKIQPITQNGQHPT
T1 sequence (P14416 whole entry): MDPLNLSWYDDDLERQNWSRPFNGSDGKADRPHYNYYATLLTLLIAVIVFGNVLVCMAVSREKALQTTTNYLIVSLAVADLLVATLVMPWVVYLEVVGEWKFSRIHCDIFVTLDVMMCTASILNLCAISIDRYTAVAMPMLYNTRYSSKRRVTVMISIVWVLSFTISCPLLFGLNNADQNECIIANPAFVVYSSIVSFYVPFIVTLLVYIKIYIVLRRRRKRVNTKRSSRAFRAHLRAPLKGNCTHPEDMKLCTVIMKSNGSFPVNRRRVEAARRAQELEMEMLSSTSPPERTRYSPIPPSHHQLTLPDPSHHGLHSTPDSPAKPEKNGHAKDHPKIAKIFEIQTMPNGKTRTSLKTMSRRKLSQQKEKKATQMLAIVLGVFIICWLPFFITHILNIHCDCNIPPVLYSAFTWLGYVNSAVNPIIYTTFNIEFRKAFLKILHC

For `COc1cc2c(cc1OC)[C@@H]1Cc3ccc(OC)c(OC)c3CN1CC2` [l-THP, l-tetrahydropalmatine], the “binding affinity for the D2 receptor (in words)” value [1] is listed as “high binding affinity”.
For `COc1cc2c(cc1OC)[C@H]1Cc3ccc(OC)c(OC)c3CN1CC2` [d-THP], the “binding affinity for the D2 receptor (in words)” value [1] is listed as “low or absent affinity”.
With `COc1ccc2c(c1O)CN1CCc3cc4c(cc3C1C2)OCO4` (stereo not drawn) [d-TU, Tetrahydroberberrubine] the “affinity against D1 receptor (in words)” value ([2]; based on the cAMP assay) was “no affinity”, the EC50 [2] was > 10 µM and the “affinity against D2 receptor (in words)” value ([3]; based on the calcium flux assay) was “no affinity”. For the same compound, the EC50 [3] was > 10 µM.
In the case of `COc1ccc2c(c1O)CN1CCc3cc4c(cc3C1C2)OCO4` (stereo not drawn) [l-TU, Tetrahydroberberrubine], the EC50 [2] is listed as > 10 µM, the EC50 [3] is listed as > 10 µM and the “binding affinity for D1 receptor (in words)” value [4] is listed as “high binding affinities”. The “binding affinity for D2 receptor (in words)” value [5] was “high binding affinities”, the “binding affinity for D3 receptor (in words)” value [6] was “high binding affinities” and the “binding affinity for 5-HT1A receptor (in words)” value [7] was “high binding affinities”.
Compound `CN1CCc2cc(Cl)c(O)cc2[C@@H](c2ccccc2)C1` [SCH23390, reference compound] has an IC50 [3] of 4.06 µM.
